Measured values from patent US20100075993A1, “SMALL MOLECULE INHIBITORS AGAINST WEST NILE VIRUS REPLICATION” (DREXEL UNIVERSITY, priority 2005, published 2010).

What was measured:
[1] = tested on: WNV NS3 protein; assay: Western blot of WNV protein in compound treated replicon cells; assay type: cell-based, West Nile virus; conditions: 48-hour treatment, up to 10 uM; MPA 2.5 ug/ml
Protocol: Mycophenolic acid (MPA) was used as positive control in the experiment. 4×10^4 cells were seeded in 24 well plates 24 hours before the various concentrations of compounds were added. After 48 hours of drug treatment, SDS-Sample buffer were added to the wells to lyse the cells. The protein samples were separated on SDS-PAGE and transferred to PVDF membrane. Viral protein was detected by probing with a monoclonal antibody against WNV. The same membrane was stripped and probed for beta-actin with the signals shown at the bottom of the blot.
Although it is reassuring that multiple tests have yielded similar positive results, the ability of the compounds to inhibit WNV replication was further assessed in secondary assays. In the western blot analysis shown in FIG. 5, total cell proteins were prepared from WNV replicon cells treated with the hit compounds and the viral protein NS3 was detected with a monoclonal […] against West Nile virus (15). The same blots were stripped and probed for beta-actin to show equal loading. […] When compared with the IC50 determined for these compounds in the luciferase assay, there was a good correlation between the luciferase reduction and the viral protein reduction.
Total cell lysates from replicon cells were harvested from replicon cells in 1×SDS sample buffer. The lysates were heated at 70° C. for 10 min in the presence of DTT before electrophoresis on a 10% Tris-glycine SDS polyacrylamide gel (Invitrogen) in 1× Tris-glycine buffer. The protein was transferred to PVDF (Invitrogen) membrane. Following the transfer, the membrane was rinsed once with TBS containing 0.5% Tween-20 (TBS-Tween) and blocked in TBS-Tween containing 5% non-fat milk for 1 h. After washing with PBS-Tween, the membrane was incubated with the primary WNV antibody (15) at 1:3000 dilutions for 1 h at 25° C. Prior to incubation with HRP conjugated-mouset IgG secondary antibody (Amersham, Life Science, Piscataway, N.J.) diluted 1:5000, the blot was washed in PBS-Tween. Following the secondary antibody incubation, the blot was washed again and treated with Super Signal Chemiluminescent Reagent (Pierce) according to the manufacturer's protocol and exposed to X-ray film. For controls, the blots were stripped and re-probed with an antibody to beta-actin (Chemicon), which was detected with a goat anti-mouse horseradish peroxidase conjugate.

[2] = tested on: BHK 26.5 replicon cells; assay: MTT toxicity assay on BHK 26.5 replicon cells; assay type: cell-based; conditions: MTT assay
Description: The HTS strategy follows the flowchart outlined in FIG. 2. 35,000 compounds were screened from a chemical library described below, using a cutoff of 50% reduction in luminescence readout as the criteria for further study. Upon completion of the screen, approximately 1100 compounds were selected, making the hit rate of 3%. This is considerably higher than expected, implying many false positive and/or cytotoxic compounds. Nevertheless, the compounds were picked out from the “daughter” plates and re-checked at a single 10 μM concentration. In addition, a duplicate 96 well plates were also plated and the toxicity of the compounds was determined in an MTT assay. Upon completion of these assays, most compounds were disqualified as either false positives or being toxicity to cells. As a result, only a small number of compounds were further analyzed directly from the “mother” plate stock. After IC50 determination and secondary assay to rule out luciferase inhibitors, 23 “hits” were identified.
(§1) Replicon-harboring cells were plated 96-well plates at 10,000 cells per well in MEM plus 3% FBS. 24 hours after plating, compounds were added to the wells by a Robotic liquid handler (Biomek NX) to a final concentration of 10 μM and 1% DMSO. For each 96 well plate, A1 to A8 were left open, H1 to H4 contained 1% DMSO, H5-H8 contained Mycophenolic acid (Sigma-Aldrich, St. Louis, Mo.), which was included as positive controls. After 24 hours of treatment, the media were removed and the luciferase activity expressed in the replicon cells was quantified. When cyto-toxicity was measured, duplicate 96 well plates were plated with BHK 26.5 replicon cells. One plate was used for luciferase assay and one plate was used for measuring toxicity using MTT assay.
(§2) Compound toxicity was determined by MTT assay. For the MTT assay, the cell medium was removed and the monolayers were incubated with 100 μl/well of 0.5 mg/ml MTT for 6 h at 37° C. The MTT solution was then aspirated and 100 μl/well of the 10% SDS (in 0.01N HCl) was added, followed by spectrophotometric quantitation (570 nm) of the insoluble MIT reaction product.

[3] = tested on: WNV replicon; assay: WNV replicon luciferase assay in BHK 26.5 cells (HTS, re-test, IC50); assay type: cell-based, West Nile virus; conditions: for IC50: West Nile virus, 24 h; for Fold decrease (HTS) / Fold decrease (Re-test): luciferase activity; for Fold decrease (HTS): 10 μM compound, 24 hours, BHK 26.5 cells; for Fold decrease (Re-test): re-checked at a single 10 μM concentration
Protocol: Ten micromolar concentrations of a selected compound were incubated with BHK 26.5 cells expressing luciferase whose activity is dependent upon WNV replicon replication (FIG. 1A). Primary “hits” were defined by the ability to reduce the amount of luciferase enzyme activity by more than 50%, compared to controls.
To quantify and rank the activity of the 23 remaining compound “hits”, a serial dilution of each compound was incubated with WNV replicon cells to determine the concentration that inhibits 50% of the luciferase readout (IC50s). […] A number of compounds had significant effect only at the highest, 10 μM concentration. However, several compounds had IC50s between 2 and 5 (Table 3), which is very reasonable for primary HTS hits from a compound library. Only a few compounds could cause 90% inhibition in the replicon cells at the concentrations tested.
as §1
Luciferase assay was performed by using the STEADY GLO reagent (Promega Corp. Madison, Wis.) according to the manufacturer's recommendation with slight modifications. Briefly, the culture media from the 96 wells were removed by dumping on paper towels.
100 μl of a 1:1 mixture of luciferase regent and culture media were added to the plate. After 5-minute incubation, the luminescence was read on a TOPCOUNT (PerkinElmer, Wellesley, Mass.).

[4] = tested on: BHK cells; assay: toxicity (MTT, CC50) in BHK cells parallel to WNV infection assay; assay type: cell-based; conditions: 20 μM, parallel toxicity assessment
Protocol: Several of these original compounds selected from the WNV replicon based screen were evaluated in an antiviral assay against WNV live virus. […] Modifications of this compound would be further investigated
The toxicity of 101-G7 was also measured by MTT assay and CC50 was calculated. 40 μM is highest concentration used.
as §2

[5] = tested on: WNV; assay: WNV yield reduction assay (live virus) on BHK cells; assay type: cell-based, West Nile virus
Protocol: The antiviral assay for the 309-F6 compounds was conducted on BHK cells. The virus produced in the presence of 1% DMSO or various concentrations of compounds was tittered on Vero cells. The amount of virus relative to the 1% DMSO control was plotted on the y-axis; the concentration of the compound 309F6 is shown in μM on the x-axis. Data from two independently treated wells (Test 1 and Test 2) are shown.
To measure activity against live WNV, BHK cells were plated in 96-well plates at a concentration of 12,000 cells/well. One day later the cells were infected with WNV for 1 h at an MOI of 0.05. The cells were then washed once and re-fed with fresh DMEM containing dilutions of the test compound. Plates were then incubated at 37° C. for 48 h, the supernatant collected and the WNV produced titered. For virus titration, Vero cells were plated in 96-well plates at 8000 cells/well and incubated overnight. The Vero cell monolayer were then infected for 1 h with various dilutions of the WNV supernatant, overlaid with media containing 0.6% tragacanth (ICN, CA) and incubated at 37° C. for 48 h. The culture media was then aspirated; the plate was rinsed, air-dried, and fixed with 50 μl/well acetone/methanol (50:50). Viral foci were detected for enumeration by immunostaining as described previously (15).

[6] = tested on: WNV RNA; assay: Northern blot of WNV RNA in compound treated replicon cells; assay type: cell-based, West Nile virus; conditions: for WNV RNA replication / RNA level (northern blot): 10 μM, 48 hours; for WNV RNA reduction: 48-hour treatment, compounds 10 μM
Protocol: FIG. 6 is a picture of a Northern blot gel of compound treated WNV replicon cells. 4×10^4 cells were seeded in 24 well plates. After 24 hours, the cells were treated with DMSO (lanes 2, 3) or the non-specific inhibitors, MPA (lane 1) or the compounds […] (lane 4), 18-B3 (lane 5) or 52-F2 (lane 6). After 48 hours, total RNA were isolated, separated on denaturing agrose gels and transferred to nylon membrane. Total RNA from a non-replicon cell (Huh-7 cell) was loaded in lane 7 as negative control. The membrane was probed with [^32P]-dCTP-labeled WNV NS5 and human beta-actin. The signal was quantified using a BioRad phosphoimager and WNV RNA level was calculated using beta-actin as a reference.
To confirm that the compounds can indeed inhibit WNV RNA replication, the WNV RNA level in the replicon cells treated with compounds by Northern blot analysis. Several hit compounds, 18-B3, 275-F9, 275-D9, 52-F2 and MPA were selected to treat the BHK 26.5 cells at 10 μM. […] The “hit” compounds 18-B3 and 275-F9 reduced WNV RNA by 1.5 and 2 fold, respectively (FIG. 6, lanes 4, 5). 18-B3 is one of the nine compounds that have similar structures while 275-F9 is one from another class of four compounds (Table 3).
Total cellular RNA was extracted by using the RNEASY kit (Qiagen NV, Netherlands). Northern blot analysis was done according to the protocol of Gu et al. 2002 (8). Briefly, 5 μg total RNA was electrophoresed through a 1.0% agarose gel containing 2.2M formaldehyde, transferred to a nylon membrane and immobilized by UV cross-linking (Stratagene, La Jolla, Calif.). After pre-hybridization in 5 ml of QuickHyb (Amersham, Piscataway, N.J. GE Healthcare, Giles, UK), [2P] dCTP-labeled probe made by random primer labeling of a 2.7 kb NS5 DNA fragment and a human beta-actin DNA at 65° C. The membrane was washed twice in 2×SSC/0.1% SDS for 10 min at room temperature and twice in 0.1×SSC/0.1% SDS for 15 min at 68° C. Membranes were exposed to Molecular Imager FX phosphoimager (BioRad, Hercules, Calif.) and the radiographic signals were collected and quantitated.

SMILES | WNV NS3 protein level (western blot) [1] | Toxicity (uM)* [2] | IC50 [3] | Fold decrease (HTS) [3] | Fold decrease (Re-test) [3] | cell toxicity [4] | WNV titer reduced ([5]; 20 μM, BHK cells, titered on Vero cells) | selective index ([5]; estimated) | activity in the WNV infection assay ([5]; live WNV) | WNV RNA replication / RNA level (northern blot) [6] | WNV RNA reduction [6]
COc1ccc(CC(=O)Nc2ccc(C(=N)NO)cc2)cc1 [Compound 331-D11, N-[4-(N-Hydroxycarbamimidoyl)-phenyl]-2-(4-methoxy-phenyl)-acetamide] | dose dependency is also clearly seen | >30 µM | 5 µM | 4 Fold | 2 Fold |  |  |  |  |  | 
CCN(CCNC(=O)c1cnn2c(O)c(Cc3ccccc3F)c(C)nc12)c1ccccc1 [Compound 309-F6, 6-(2-Fluoro-benzyl)-7-hydroxy-5-methyl-pyrazolo[1,5-a]pyrimidine-3-carboxylic acid [2-(ethyl-phenyl-amino)-ethyl]-amide] | reduced viral protein only at the 10 uM | >10 µM | 10 µM | 7 Fold | 6 Fold | only slight cell toxicity | approximately 90% | more than 8 | inhibited WNV production |  | 
Cc1ccc(CCNC(=O)c2cnn3c(O)c(Cc4ccccc4F)c(C)nc23)cc1 [Compound 310-B3, 6-(2-Fluoro-benzyl)-7-hydroxy-5-methyl-pyrazolo[1,5-a]pyrimidine-3-carboxylic acid (2-p-tolyl-ethyl)-amide] | reduced viral protein only at the 10 uM | >10 µM | 10 µM | 17 Fold | 4 Fold |  |  |  |  |  | 
COc1ccc(-n2nc3c(c2NC(=O)c2ccc(S(=O)(=O)N4CCCCC4)cc2)CSC3)cc1 [Compound 18-D2, N-[2-(4-Methoxy-phenyl)-2,6-dihydro-4H-thieno[3,4-c]pyrazol-3-yl]-4-(piperidine-1-sulfonyl)-benzamide] | dose dependency is also clearly seen | >30 µM | 7.5 µM | 3 Fold | 2.8 Fold |  |  |  |  |  | 
COc1ccc(-n2nc3c(c2NC(=O)c2cccs2)CSC3)cc1 [Compound 18-B3, Thiophene-2-carboxylic acid [2-(4-methoxy-phenyl)-2,6-dihydro-4H-thieno[3,4-c]pyrazol-3-yl]-amide] |  | >30 µM | 5 µM | 3 Fold | 2 Fold |  |  |  |  | clearly inhibited the WNV RNA replication | 1.5 fold
Cc1nc2c(C(=O)NCCC3=CCCCC3)cnn2c(O)c1Cc1ccccc1Cl [Compound 275-F9, 6-(2-Chloro-benzyl)-7-hydroxy-5-methyl-pyrazolo[1,5-a]pyrimidine-3-carboxylic acid (2-cyclohex-1-enyl-ethyl)-amide] |  | >10 µM | 7.5 µM | 27 Fold | 4.5 Fold |  |  |  |  | clearly capable of reducing the WNV RNA level | 2 fold
